Activity calls are given as the source filed them. The calls are words filed in the database; no cut-off is given here.
Assays:
HT-29 [1] = test: Induction of ferroptosis in human HT-29 cells assessed as increase in intracellular malondialdehyde accumulation incubated for 48 hrs in presence of ferroptosis inhibitor deferoxamine; type: functional, cell-based
HT-29 [2] = test: Induction of ferroptosis in human HT-29 cells assessed as increase in intracellular malondialdehyde accumulation incubated for 48 hrs in presence of autophagy inhibitor 3-methyladenine; type: functional, cell-based
Cell membrane [3] = test: Induction of mitochondrial membrane potential loss in human HT-29 cells assessed as increase in green fluorescence incubated for 48 hrs by JC-1 staining based flow cytometry; type: cell membranes
HT-29 [4] = test: Induction of cell death in human HT-29 cells incubated for 48 hrs in presence of ferroptosis inhibitor deferoxamine by MTT assay; type: functional, cell-based
HT-29 [5] = test: Induction of ferroptosis in human HT-29 cells assessed as decrease in intracellular GSH level incubated for 48 hrs in presence of ferroptosis inhibitor deferoxamine; type: functional, cell-based
HT-29 [6] = test: Induction of apoptosis in human HT-29 cells at 1 to 4 uM incubated for 48 hrs by Annexin V-FITC/PI staining based flow cytometry; type: functional, cell-based; settings: dose 1-4 µM
HT-29 [7] = test: Induction of ferroptosis in human HT-29 cells assessed as increase in intracellular lipid peroxidation accumulation incubated for 48 hrs in presence of ferroptosis inhibitor deferoxamine by C11 BODIPY 581/591 staining based flow cytometry; type: functional, cell-based
HT-29 [8] = test: Antiproliferative activity against human HT-29 cells assessed as inhibition of cell growth incubated for 48 hrs in presence of ROS scavenger NAC by MTT assay; type: functional, cell-based
HT-29 [9] = test: Induction of ferroptosis in human HT-29 cells assessed as decrease in GPx level incubated for 48 hrs in presence of ferroptosis inhibitor CPX; type: functional, cell-based
HT-29 [10] = test: Induction of cell cycle arrest in human HT-29 cells assessed as downregulation of Cyclin B1 expression at 0.5 to 4 uM incubated for 48 hrs by Western blotting analysis; type: functional, cell-based; settings: dose 0.5-4 µM
HT-29 [11] = test: Induction of cell cycle arrest in human HT-29 cells assessed as accumulation of cells at G2/M phase at 1 uM incubated for 48 hrs by propidium iodide staining based flow cytometric analysis; type: functional
HT-29 [12] = test: Induction of autophagy in human HT-29 cells assessed as increase in MDC positive cells incubated for 48 hrs by MDC staining based flow cytometric analysis; type: functional, cell-based
HT-29 [13] = test: Antiproliferative activity against human HT-29 cells assessed as inhibition of cell growth incubated for 48 hrs in presence of autophagy inhibitor Spautin-1 by MTT assay; type: functional, cell-based
Cell membrane [14] = test: Induction of mitochondrial membrane potential loss in human HT-29 cells assessed as decrease in orange-red fluorescence incubated for 48 hrs by JC-1 staining based flow cytometry; type: cell membranes
HT-29 [15] = test: Induction of ferroptosis in human HT-29 cells assessed as increase in intracellular lipid peroxidation accumulation incubated for 48 hrs in presence of autophagy inhibitor 3-methyladenine by C11 BODIPY 581/591 staining based flow cytometry; type: functional, cell-based
HT-29 [16] = test: Antiproliferative activity against human HT-29 cells assessed as inhibition of cell growth incubated for 48 hrs by MTT assay; type: functional, cell-based; settings: HT-29, 48 h
HT-29 [17] = test: Induction of ferroptosis in human HT-29 cells assessed as decrease in GPx level incubated for 48 hrs in presence of ferroptosis inhibitor deferoxamine; type: functional, cell-based
HT-29 [18] = test: Induction of autophagy in human HT-29 cells assessed as upregulation of ATG5 protein expression incubated for 48 hrs by Western blotting analysis; type: functional, cell-based
HT-29 [19] = test: Induction of ferroptosis in human HT-29 cells assessed as mitochondrial morphological change incubated for 48 hrs in presence of ferroptosis inhibitor deferoxamine by transmission electron microscopic analysis; type: functional, cell-based
HT-29 [20] = test: Induction of autophagy in human HT-29 cells assessed as increase in MDC positive cells incubated for 48 hrs in presence of ferroptosis inhibitor deferoxamine by MDC staining based flow cytometric analysis; type: functional, cell-based
HT-29 [21] = test: Induction of ferroptosis in human HT-29 cells incubated for 48 hrs by MTT assay; type: functional, cell-based
HT-29 [22] = test: Induction of ferroptosis in human HT-29 cells assessed as decrease in GPx level at 1 to 4 uM incubated for 48 hrs; type: functional, cell-based; settings: dose 1-4 µM
HT-29 [23] = test: Induction of ferroptosis in human HT-29 cells assessed as increase in intracellular malondialdehyde accumulation incubated for 48 hrs; type: functional, cell-based
HT-29 [24] = test: Induction of ferroptosis in human HT-29 cells assessed as increase in intracellular iron level incubated for 48 hrs; type: functional, cell-based
HT-29 [25] = test: Induction of ROS production in human HT-29 cells assessed as increase in red fluorescence intensity incubated for 48 hrs by DHE fluorescent probe based flow cytometry; type: functional, cell-based
HT-29 [26] = test: Induction of ferroptosis in human HT-29 cells assessed as increase in intracellular lipid peroxidation accumulation incubated for 48 hrs by C11 BODIPY 581/591 staining based flow cytometry; type: functional, cell-based
HT-29 [27] = test: Induction of cell cycle arrest in human HT-29 cells assessed as accumulation of cells at G2/M phase at 4 uM incubated for 48 hrs by propidium iodide staining based flow cytometric analysis relative to control; type: functional
MCF7 = test: Antiproliferative activity against human MCF7 cells assessed as inhibition of cell growth incubated for 48 hrs by MTT assay; type: functional, cell-based; settings: MCF7, 48 h
HeLa = test: Antiproliferative activity against human HeLa cells assessed as inhibition of cell growth incubated for 48 hrs by MTT assay; type: functional, cell-based
HT-29 [28] = test: Induction of ferroptosis in human HT-29 cells assessed as increase in mitochondrial membrane density incubated for 48 hrs by transmission electron microscopic analysis; type: functional, cell-based
HT-29 [29] = test: Induction of necrosis in human HT-29 cells incubated for 48 hrs by MTT assay; type: functional, cell-based
HT-29 [30] = test: Induction of ferroptosis in human HT-29 cells assessed as decrease in GPX4 expression incubated for 48 hrs by Western blotting analysis; type: functional, cell-based
K562 = test: Antiproliferative activity against human K562 cells assessed as inhibition of cell growth incubated for 48 hrs by MTT assay; type: functional, cell-based; settings: K562, 48 h
HT-29 [31] = test: Induction of ferroptosis in human HT-29 cells assessed as increase in intracellular iron level incubated for 48 hrs in presence of autophagy inhibitor 3-methyladenine; type: functional, cell-based
HT-29 [32] = test: Induction of ferroptosis in human HT-29 cells assessed as increase in intracellular lipid peroxidation accumulation incubated for 48 hrs in presence of ROS scavenger NAC by C11 BODIPY 581/591 staining based flow cytometry; type: functional, cell-based
HT-29 [33] = test: Induction of ferroptosis in human HT-29 cells assessed as decrease in intracellular GSH level incubated for 48 hrs in presence of ferroptosis inhibitor CPX; type: functional, cell-based
HT-29 [34] = test: Induction of ferroptosis in human HT-29 cells assessed as increase in intracellular lipid peroxidation accumulation incubated for 48 hrs in presence of ferroptosis inhibitor CPX by C11 BODIPY 581/591 staining based flow cytometry; type: functional, cell-based
HT-29 [35] = test: Induction of ferroptosis in human HT-29 cells assessed as increase in intracellular iron level incubated for 48 hrs in presence of ferroptosis inhibitor deferoxamine; type: functional, cell-based
HT-29 [36] = test: Induction of autophagy in human HT-29 cells assessed as increase in MDC positive cells incubated for 48 hrs in presence of ROS scavenger NAC by MDC staining based flow cytometric analysis; type: functional, cell-based
HT-29 [37] = test: Induction of ROS production in human HT-29 cells assessed as increase in DCF fluorescence intensity incubated for 48 hrs by DCFH-DA fluorescent probe based flow cytometry; type: functional, cell-based

Activity (Cell membrane [3]): Dose-Dependent Effect
Activity (Cell membrane [14]): Dose-Dependent Effect
IC50 (HT-29 [16]): 1.97 µM
IC50 (MCF7): 7.01 µM
IC50 (HeLa): 6.18 µM
IC50 (K562): 4.92 µM
SMILES: COc1ccc2c(c1)NCCN2C(=O)NCCCl
Activity (HT-29 [1]): inactive
Activity (HT-29 [2]): Active
Activity (HT-29 [4]): inactive
Activity (HT-29 [5]): inactive
Activity (HT-29 [6]): inactive
Activity (HT-29 [7]): inactive
Activity (HT-29 [8]): inactive
Activity (HT-29 [9]): inactive
Activity (HT-29 [10]): Active
Activity (HT-29 [11]): inactive
Activity (HT-29 [12]): Dose-Dependent Effect
Activity (HT-29 [13]): inactive
Activity (HT-29 [15]): Active
Activity (HT-29 [17]): inactive
Activity (HT-29 [18]): Dose-Dependent Effect
Activity (HT-29 [19]): inactive
Activity (HT-29 [20]): Active
Activity (HT-29 [21]): Active
Activity (HT-29 [22]): Active
Activity (HT-29 [23]): Dose-Dependent Effect
Activity (HT-29 [24]): Dose-Dependent Effect
Activity (HT-29 [25]): Active
Activity (HT-29 [26]): Dose-Dependent Effect
Activity (HT-29 [27]): >80%
Activity (HT-29 [28]): Active
Activity (HT-29 [29]): Active
Activity (HT-29 [30]): Dose-Dependent Effect
Activity (HT-29 [31]): Active
Activity (HT-29 [32]): inactive
Activity (HT-29 [33]): inactive
Activity (HT-29 [34]): inactive
Activity (HT-29 [35]): inactive
Activity (HT-29 [36]): inactive
Activity (HT-29 [37]): Dose-Dependent Effect

From ChEMBL document CHEMBL5505995, “Discovery of novel urea derivatives as ferroptosis and autophagy inducer for human colon cancer treatment” (Eur J Med Chem, 2024)
